Laboratory results from patent US8629164B2, “Inhibitors of NF-κB” (Profectus Biosciences, Inc., priority 2009, dated 2014).
Where a name gives a salt, the structure may show the parent alone.

Tests used:
p52 = target: T1, p52 (Homo sapiens, UniProt Q00653); experiment: TransAM NF-κB Family DNA Binding ELISA, p52; settings: for IC50: p52 binding IC50 (uM), cells without % sign
T1 sequence (Q00653 1-454 limits assumed): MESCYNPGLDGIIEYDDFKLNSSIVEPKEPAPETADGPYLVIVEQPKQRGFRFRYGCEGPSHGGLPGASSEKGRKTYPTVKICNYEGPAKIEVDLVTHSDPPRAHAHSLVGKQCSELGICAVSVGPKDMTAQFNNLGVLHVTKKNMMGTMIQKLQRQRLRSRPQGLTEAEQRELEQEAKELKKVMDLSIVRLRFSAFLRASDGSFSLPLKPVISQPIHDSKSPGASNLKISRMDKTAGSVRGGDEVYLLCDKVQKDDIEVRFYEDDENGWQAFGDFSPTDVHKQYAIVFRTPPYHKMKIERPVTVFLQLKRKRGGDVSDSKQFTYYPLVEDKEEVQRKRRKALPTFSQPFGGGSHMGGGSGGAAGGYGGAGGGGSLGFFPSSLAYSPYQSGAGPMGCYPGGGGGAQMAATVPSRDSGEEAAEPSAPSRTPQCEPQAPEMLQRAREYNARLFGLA
Protocol: (§2) Treated samples were then transferred to 30 μL Complete Binding Buffer (with DTT) in microplate wells pre-coated with the NF-κB consensus oligonucleotide. […] The plate was incubated for 1 hour at room temperature with gentle shaking and then washed 3 times with 200 μL 1× Wash Buffer. NF-κB p65, p50, p52, RelB, or c-Rel subunits bound to the plate were detected with 100 μL of the primary antibody (diluted 1:1000 in 1× Antibody Buffer) specific for that subunit. The plate was incubated for 1 hour at room temperature and then washed 3 times with 200 μL 1× Wash Buffer. Next, 100 μL of a HRP conjugated goat anti-rabbit antibody (diluted 1:1,000 in 1× Antibody Buffer) was added to each well. The plate was incubated for 1 hour at room temperature and then washed 4 times with 200 μL 1× Wash Buffer. 100 μL of room temperature Developing Solution was added to each well. The reaction was allowed to develop for 2-10 minutes until a medium dark blue color developed (depending on the subunit activity in the lot of extract or lot of recombinant protein used) and then the reaction was stopped with 100 μL Stop Solution yielding a yellow color. Absorbance was recorded using a Becton-Dickinson DTX 880 Multimode Detector at 450 nm with a reference wavelength subtracted at 620 nm.

p65 (RelA) = p65 (RelA) (Homo sapiens, UniProt Q04206); experiment: TransAM NF-κB Family DNA Binding ELISA, p65; settings: p65 binding IC50 (uM), binding to NF-κB sites
p65 (RelA), sequence (Q04206 whole entry): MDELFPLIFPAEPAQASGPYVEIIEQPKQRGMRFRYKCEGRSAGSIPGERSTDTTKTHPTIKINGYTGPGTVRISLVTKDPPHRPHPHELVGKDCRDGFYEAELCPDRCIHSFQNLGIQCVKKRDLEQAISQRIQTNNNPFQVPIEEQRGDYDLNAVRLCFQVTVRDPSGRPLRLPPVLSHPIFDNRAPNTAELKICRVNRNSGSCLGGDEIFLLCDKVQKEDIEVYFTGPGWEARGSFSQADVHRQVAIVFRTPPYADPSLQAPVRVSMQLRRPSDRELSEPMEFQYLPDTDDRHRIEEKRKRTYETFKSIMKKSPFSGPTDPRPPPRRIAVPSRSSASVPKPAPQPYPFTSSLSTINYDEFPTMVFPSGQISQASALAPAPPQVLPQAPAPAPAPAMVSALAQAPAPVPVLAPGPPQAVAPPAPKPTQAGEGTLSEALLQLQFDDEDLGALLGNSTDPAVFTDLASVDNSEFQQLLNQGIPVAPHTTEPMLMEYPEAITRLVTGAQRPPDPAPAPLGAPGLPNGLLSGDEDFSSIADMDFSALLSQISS
Protocol: as §2

NF-κB [1] = experiment: 293-cell pNF-κB-luc reporter assay, TNF-α induced; type: cell-based; settings: HEK293 cells, NF-κB driven luciferase expression, read-out: 293/NFkB-luc EC50
Protocol: (§1) Inhibition of NF-κB in cells by the compound of Example 1. Two reporter cell assays were used to determine the ability of the compound of Example 1 to inhibit NE-KB driven transcription. The first assay was a 293-cell based assay with a stably integrated pNF-κB-luc reporter plasmid containing 3 NF-κB promoter elements. The second assay was a 293-cell based assay with a stably integrated pTRH1-NF-κB-dscGFP reporter containing 4 NF-κB promoter elements. Cells were treated with 0, 0.2, 1, 10, 20 and 40 μM of the compound of Example 1 for 2 hours then were induced with 20 ng/ml TNF-α for 18 hours. Following the induction, luminescence or fluorescence was quantified using a Beckman-Coulter 2300 plate reader. […] These values represent the median value generated from three independent experiments±the standard error. As a control, 0.5% DMSO treated and untreated cells were compared to verify that the Example 1 carrier had no effect on the expression of luciferase or in the readout of the assay. There was a slight decrease in the output from the assay in the DMSO treated population although it was not statistically significant. As a result of the controls, the decrease in activity in the drug treated samples was compared to the DMSO control sample.

p50 = target: T2, p50 (Homo sapiens, UniProt P19838); experiment: TransAM NF-κB Family DNA Binding ELISA, p50; settings: p50 binding IC50 (uM), cells without % sign
T2 sequence (P19838 1-433 limits assumed): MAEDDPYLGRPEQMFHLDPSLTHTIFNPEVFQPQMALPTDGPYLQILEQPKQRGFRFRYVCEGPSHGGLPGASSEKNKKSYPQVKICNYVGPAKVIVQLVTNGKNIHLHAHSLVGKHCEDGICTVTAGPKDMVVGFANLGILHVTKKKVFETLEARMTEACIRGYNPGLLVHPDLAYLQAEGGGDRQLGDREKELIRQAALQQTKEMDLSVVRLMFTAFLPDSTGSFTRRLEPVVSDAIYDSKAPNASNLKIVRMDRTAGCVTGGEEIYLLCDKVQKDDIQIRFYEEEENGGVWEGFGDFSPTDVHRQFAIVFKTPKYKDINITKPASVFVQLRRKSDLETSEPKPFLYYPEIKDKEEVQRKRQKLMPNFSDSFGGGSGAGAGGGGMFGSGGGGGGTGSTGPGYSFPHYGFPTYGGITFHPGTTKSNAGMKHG
Protocol: as §2

NF-κB [2] = experiment: 293-cell pTRH1-NF-κB-dscGFP reporter assay, TNF-α induced; type: cell-based; settings: NF-κB driven GFP expression, read-out: NF-kB/293/GFP EC50
Protocol: as §1

[3] = test system: IL-6 release from RAW264.7 cells; experiment: IL-6 release from LPS stimulated RAW264.7 cells; type: cell-based, mouse
Protocol: Specifically, A and B show the effects of the compound of Example 1 on soluble PGE2 and Il-6 secretion from RAW264.7 cells stimulated by 1 μg/mL of LPS. The cells were treated with the indicated concentrations of the compound of Example 1 for 2 hours, and then LPS was added and incubation continued for 4 hours. […]

c-Rel = target: T3, c-Rel (Homo sapiens, UniProt Q04864); experiment: TransAM NF-κB Family DNA Binding ELISA, c-Rel; settings: at 5 uM
T3 sequence (Q04864 2-619 limits assumed): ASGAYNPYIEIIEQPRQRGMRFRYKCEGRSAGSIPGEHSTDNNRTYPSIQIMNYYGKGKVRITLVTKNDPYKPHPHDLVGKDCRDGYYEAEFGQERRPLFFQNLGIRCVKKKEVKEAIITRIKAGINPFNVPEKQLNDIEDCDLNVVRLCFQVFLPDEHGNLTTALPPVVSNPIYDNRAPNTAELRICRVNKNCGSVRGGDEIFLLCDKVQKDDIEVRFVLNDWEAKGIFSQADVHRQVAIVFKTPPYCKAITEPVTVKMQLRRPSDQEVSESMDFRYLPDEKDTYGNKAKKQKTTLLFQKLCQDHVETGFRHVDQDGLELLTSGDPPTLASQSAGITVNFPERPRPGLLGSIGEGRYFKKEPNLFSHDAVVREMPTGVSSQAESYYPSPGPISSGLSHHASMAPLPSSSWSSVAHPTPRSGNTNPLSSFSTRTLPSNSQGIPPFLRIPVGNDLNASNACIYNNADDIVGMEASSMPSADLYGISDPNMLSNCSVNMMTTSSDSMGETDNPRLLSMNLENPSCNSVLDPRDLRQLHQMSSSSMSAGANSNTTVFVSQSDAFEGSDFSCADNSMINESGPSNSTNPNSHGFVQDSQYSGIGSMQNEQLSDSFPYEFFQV

RelB = target: T4, RelB (Homo sapiens, UniProt Q01201); experiment: TransAM NF-κB Family DNA Binding ELISA, RelB; settings: at 5 uM
T4 sequence (Q01201 1-579): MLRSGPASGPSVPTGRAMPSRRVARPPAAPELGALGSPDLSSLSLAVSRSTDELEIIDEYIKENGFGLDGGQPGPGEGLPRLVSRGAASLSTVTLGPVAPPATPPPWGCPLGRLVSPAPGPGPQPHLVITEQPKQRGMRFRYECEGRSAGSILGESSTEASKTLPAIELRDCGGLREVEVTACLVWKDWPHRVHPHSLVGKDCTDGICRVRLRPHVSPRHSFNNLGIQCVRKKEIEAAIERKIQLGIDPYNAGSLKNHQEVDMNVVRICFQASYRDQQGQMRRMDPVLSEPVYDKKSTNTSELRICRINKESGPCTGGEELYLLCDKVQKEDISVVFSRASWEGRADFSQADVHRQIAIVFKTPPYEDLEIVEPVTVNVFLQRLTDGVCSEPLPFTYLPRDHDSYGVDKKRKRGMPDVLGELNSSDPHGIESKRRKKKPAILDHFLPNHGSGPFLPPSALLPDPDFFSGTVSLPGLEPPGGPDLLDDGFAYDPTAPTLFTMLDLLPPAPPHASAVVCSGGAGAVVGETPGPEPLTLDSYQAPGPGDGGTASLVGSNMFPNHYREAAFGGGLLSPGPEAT
T4 sequence (Q00653 1-454 partner limits assumed): T1 sequence (Q00653 1-454 limits assumed)
Protocol: as §2

[4] = RAW 264.7 cells, trifluoroacetate
[5] = Homo sapiens, HEK293, HEK293 cells
[6] = Mus musculus, RAW264.7, RAW 264.7 cells

SMILES	IC50 (p52)	IC50 (p65 (RelA))	EC50 (NF-κB [1]; trifluoroacetate)	IC50 (p50)	EC50 (NF-κB [2]; HEK293 cells, trifluoroacetate)	EC50 [3, 4]	EC50 (NF-κB [1])	EC50 (NF-κB [2]; [5])	EC50 [3, 6]	p52 binding % inhibit. at 5 uM (p52)	c-Rel binding % inhibit. at 5 uM (c-Rel)	EC50 (NF-κB [1]; tosylate)	EC50 ([3]; RAW 264.7 cells, tosylate)	RelB binding % inhibit. at 5 uM (RelB)
Cc1ncc(C(=O)NC2=CC(=O)C3OC3C2O)c(O)n1 (racemic) [Example 24, (±)-4-hydroxy-2-methyl-pyrimidine-5-carboxylic acid (2-hydroxy-5-oxo-7-oxa-bicyclo[4.1.0]hept-3-en-3-yl)-amide]		2.3 µM					> 48 µM	> 48 µM	27.1 µM					
O=C(NC1=CC(=O)C2OC2C1O)c1nc(Cl)c2ccccc2c1O (racemic) [Example 27, (±)-1-chloro-4-hydroxy-isoquinoline-3-carboxylic acid (2-hydroxy-5-oxo-7-oxa-bicyclo[4.1.0]hept-3-en-3-yl)-amide]		30 µM					9.7 µM	6.7 µM	0.71 µM					
Cc1ccc(S(=O)(=O)O)cc1.O=C(NC1=CC(=O)C2OC2C1O)c1ncccc1O (racemic) [Example 14, (±)-3-hydroxy-N-(2-hydroxy-5-oxo-7-oxabicyclo[4.1.0]hept-3-en-3-yl)picolinamide tosylate]										6%	1%	23 µM	3.3 µM	9%
COc1cc2ccccc2nc1C(=O)NC1=CC(=O)C2OC2C1O (racemic) [Example 31, (±)-N-(2-hydroxy-5-oxo-7-oxabicyclo[4.1.0]hept-3-en-3-yl)-3-methoxyquinoline-2-carboxamide]	21 µM	38 µM		28 µM			3.9 µM	5.6 µM	1 µM					
COc1cccnc1C(=O)NC1=CC(=O)C2OC2C1O (racemic) [Example 22, (±)-3-methoxy-pyridine-2-carboxylic acid (2-hydroxy-5-oxo-7-oxa-bicyclo[4.1.0]hept-3-en-3-yl)-amide trifluoroacetate]		13.2 µM	> 34 µM			> 34 µM								
COc1ncccc1C(=O)NC1=CC(=O)C2OC2C1=O (racemic) [Example 30, (±)-N-(2,5-Dioxo-7-oxa-bicyclo[4.1.0]hept-3-en-3-yl)-2-methoxy-nicotinamide]	> 608 µM	36 µM		> 608 µM			2.7 µM	4.3 µM	0.76 µM					
O=C(NC1=CC(=O)C2OC2C1O)c1ccc(C(F)(F)F)nc1O (racemic) [Example 23, (±)-2-hydroxy-N-(2-hydroxy-5-oxo-7-oxa-bicyclo[4.1.0]hept-3-en-3-yl)-6-trifluoromethyl-nicotinamide]		6.4 µM					> 40 µM	> 40 µM	24.8 µM					
O=C(NC1=CC(=O)C2OC2C1O)c1ncccc1O.O=C(O)C(F)(F)F (racemic) [Example 13, (±)-3-hydroxy-N-(2-hydroxy-5-oxo-7-oxabicyclo[4.1.0]hept-3-en-3-yl)picolinamide trifluoroacetate]			9.2 µM			1.4 µM				0%	15%			10%

More lines, now with the values ahead:

IC50 (p52)	IC50 (p65 (RelA))	EC50 (NF-κB [1]; trifluoroacetate)	IC50 (p50)	EC50 (NF-κB [2]; HEK293 cells, trifluoroacetate)	EC50 [3, 4]	EC50 (NF-κB [1])	EC50 (NF-κB [2]; [5])	EC50 [3, 6]	p52 binding % inhibit. at 5 uM (p52)	c-Rel binding % inhibit. at 5 uM (c-Rel)	EC50 (NF-κB [1]; tosylate)	EC50 ([3]; RAW 264.7 cells, tosylate)	RelB binding % inhibit. at 5 uM (RelB)	SMILES
> 378 µM	4.8 µM	0.53 µM	> 378 µM	2 µM	0.26 µM									COc1c(C(=O)NC2=CC(=O)C3OC3C2O)ccc2cccnc12 (racemic) [Example 33, (±)-N-(2-hydroxy-5-oxo-7-oxabicyclo[4.1.0]hept-3-en-3-yl)-8-methoxyquinoline-7-carboxamide trifluoroacetate]
81 µM	50 µM		148 µM			3.1 µM	5.3 µM	0.44 µM						COc1nc2ccccc2cc1C(=O)NC1=CC(=O)C2OC2C1=O (racemic) [Example 35, (±)-N-(2,5-dioxo-7-oxabicyclo[4.1.0]hept-3-en-3-yl)-2-methoxyquinoline-3-carboxamide]
96 µM	12 µM		90 µM			> 51 µM	39 µM	42 µM						O=C(NC1=CC(=O)C2OC2C1=O)c1ccncc1O (racemic) [Example 34, (±)-N-(2,5-dioxo-7-oxabicyclo[4.1.0]hept-3-en-3-yl)-3-hydroxyisonicotinamide]
> 514 µM	30 µM		> 514 µM			3.4 µM	3 µM	0.24 µM						COc1c(C(=O)NC2=CC(=O)C3OC3C2=O)ccc2cccnc12 (racemic) [Example 32, (±)-N-(2,5-diose-7-oxabicyclo[4.1.0]hept-3-en-3-yl)-8-methoxyquinoline-7-carboxamide]
